This note sets out measurements from patent publication US20100216779A1 (GLAXOSMITHKLINE LLC, priority 2007, published 2010).

What is called IC50 is the concentration that gives 50% inhibition.

Holding throughout (assay type): cell-based
For one assay, the system named is COLO205 (colon). Description: Inhibition of cell proliferation, CellTiter-Glo, COLO205. To be noted: Homo sapiens, COLO 205, 72 h. An outline of the steps: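 Exponentially growing COLO205 cells in medium with 10% FBS were plated below 2000 cells/well at 37 °C, 5% CO2. Untreated wells served as controls.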
(Cellular ATP, detected with luciferase, serves as a proxy for viable cell number.)

The test system of assay [1] is NCI-H929 (multiple myeloma). In words: Inhibition of cell proliferation, CellTiter-Glo, NCI-H929. To be noted: Homo sapiens, 72 h. The method, then:
C. Inhibition of Cell Proliferation
Cell proliferation was measured by either CellTiter-Glo (measures cellular ATP level as a surrogate for total cell number) or by InCell analyzer (counts number of nuclei as a measure of cell number). For CellTiter-Glo assay, exponentially growing cell lines of different tumor origins, cultured in appropriate media containing 10% fetal bovine serum at 37° C. in a 5% CO2 incubator, were plated at low density (less than 2000 cells/well) in 96-well plates. Twenty four hours post-plating, cells were treated with different concentrations of test compounds ranging from 30 uM to 1.5 nM. Several wells were left untreated as a control. Seventy two hours post-treatment, cell numbers were determined using 50-100 ul per well of CellTiter-Glo (Promega #G7573). Plates were incubated at 37° C. for 30 minutes and the chemiluminescent signal was read on the Victor V or Envison 2100 reader. […]

Assay [2] has as its target T1, human IGF-1R (NIH-3T3 cells over expressing human IGF-1R) (Homo sapiens, UniProt P08069).
T1 construct: expressed in transfected cells; host or cells: NIH-3T3 (mouse fibroblasts)
In words: IGF-1R cellular autophosphorylation (DELFIA). To be noted: IGF-1 stimulated. An outline of the steps: (§1)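 Readout: DELFIA on lysates, with anti-IGF-1R or anti-IR capture and europium anti-pTyr detection, expressed relative to 100% ligand-stimulated signal. Human IGF-1R- or IR-overexpressing NIH-3T3 cells got compound (1.5 nM–30 uM) for 2 h before 15 min IGF-1 (30 ng/mL) or insulin (3 ug/mL).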

Assay [3] addresses T2, IR (NIH-3T3 cells over expressing human IGF-1R or IR) (Homo sapiens, UniProt P06213).
T2 construct: expressed in transfected cells; host or cells: NIH-3T3 (mouse fibroblasts)
Description: IR cellular autophosphorylation (DELFIA). As to conditions: NIH-3T3 cells over expressing IR, insulin stimulated. An outline of the steps:
as §1

T2 sequence (P06213 28-1382): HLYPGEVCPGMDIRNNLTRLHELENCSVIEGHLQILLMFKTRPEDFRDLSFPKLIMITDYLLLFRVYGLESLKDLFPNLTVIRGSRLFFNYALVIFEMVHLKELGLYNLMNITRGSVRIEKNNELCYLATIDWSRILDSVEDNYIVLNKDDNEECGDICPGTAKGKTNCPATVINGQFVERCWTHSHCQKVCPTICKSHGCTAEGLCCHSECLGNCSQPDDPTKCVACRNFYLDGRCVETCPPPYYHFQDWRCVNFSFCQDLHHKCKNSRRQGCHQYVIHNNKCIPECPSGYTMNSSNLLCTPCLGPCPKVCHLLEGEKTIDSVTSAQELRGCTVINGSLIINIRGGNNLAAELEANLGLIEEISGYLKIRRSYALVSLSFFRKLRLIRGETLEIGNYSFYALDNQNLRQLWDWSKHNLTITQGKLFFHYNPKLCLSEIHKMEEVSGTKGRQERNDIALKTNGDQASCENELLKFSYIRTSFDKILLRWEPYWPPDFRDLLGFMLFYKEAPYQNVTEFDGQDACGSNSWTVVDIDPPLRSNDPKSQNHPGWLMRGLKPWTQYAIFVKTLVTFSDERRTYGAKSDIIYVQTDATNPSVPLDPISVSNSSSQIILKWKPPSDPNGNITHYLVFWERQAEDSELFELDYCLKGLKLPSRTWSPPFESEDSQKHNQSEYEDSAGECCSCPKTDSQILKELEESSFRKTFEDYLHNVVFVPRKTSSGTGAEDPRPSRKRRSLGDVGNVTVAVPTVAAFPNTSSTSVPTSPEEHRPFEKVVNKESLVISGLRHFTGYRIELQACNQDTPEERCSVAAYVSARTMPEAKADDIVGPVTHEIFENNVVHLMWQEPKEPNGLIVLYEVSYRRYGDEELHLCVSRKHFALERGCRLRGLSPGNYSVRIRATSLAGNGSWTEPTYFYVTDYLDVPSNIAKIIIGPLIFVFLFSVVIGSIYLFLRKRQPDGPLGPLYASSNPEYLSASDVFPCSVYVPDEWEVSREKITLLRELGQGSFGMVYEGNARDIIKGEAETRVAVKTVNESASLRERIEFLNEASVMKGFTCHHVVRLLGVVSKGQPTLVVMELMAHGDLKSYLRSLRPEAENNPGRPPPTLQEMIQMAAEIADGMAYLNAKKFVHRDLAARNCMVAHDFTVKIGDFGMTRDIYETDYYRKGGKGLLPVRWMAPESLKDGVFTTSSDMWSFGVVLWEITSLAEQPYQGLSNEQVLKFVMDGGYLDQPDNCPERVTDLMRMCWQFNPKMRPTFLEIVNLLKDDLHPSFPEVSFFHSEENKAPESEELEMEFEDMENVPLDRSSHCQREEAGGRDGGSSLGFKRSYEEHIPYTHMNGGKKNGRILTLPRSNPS
T1 sequence (P08069 31-1367): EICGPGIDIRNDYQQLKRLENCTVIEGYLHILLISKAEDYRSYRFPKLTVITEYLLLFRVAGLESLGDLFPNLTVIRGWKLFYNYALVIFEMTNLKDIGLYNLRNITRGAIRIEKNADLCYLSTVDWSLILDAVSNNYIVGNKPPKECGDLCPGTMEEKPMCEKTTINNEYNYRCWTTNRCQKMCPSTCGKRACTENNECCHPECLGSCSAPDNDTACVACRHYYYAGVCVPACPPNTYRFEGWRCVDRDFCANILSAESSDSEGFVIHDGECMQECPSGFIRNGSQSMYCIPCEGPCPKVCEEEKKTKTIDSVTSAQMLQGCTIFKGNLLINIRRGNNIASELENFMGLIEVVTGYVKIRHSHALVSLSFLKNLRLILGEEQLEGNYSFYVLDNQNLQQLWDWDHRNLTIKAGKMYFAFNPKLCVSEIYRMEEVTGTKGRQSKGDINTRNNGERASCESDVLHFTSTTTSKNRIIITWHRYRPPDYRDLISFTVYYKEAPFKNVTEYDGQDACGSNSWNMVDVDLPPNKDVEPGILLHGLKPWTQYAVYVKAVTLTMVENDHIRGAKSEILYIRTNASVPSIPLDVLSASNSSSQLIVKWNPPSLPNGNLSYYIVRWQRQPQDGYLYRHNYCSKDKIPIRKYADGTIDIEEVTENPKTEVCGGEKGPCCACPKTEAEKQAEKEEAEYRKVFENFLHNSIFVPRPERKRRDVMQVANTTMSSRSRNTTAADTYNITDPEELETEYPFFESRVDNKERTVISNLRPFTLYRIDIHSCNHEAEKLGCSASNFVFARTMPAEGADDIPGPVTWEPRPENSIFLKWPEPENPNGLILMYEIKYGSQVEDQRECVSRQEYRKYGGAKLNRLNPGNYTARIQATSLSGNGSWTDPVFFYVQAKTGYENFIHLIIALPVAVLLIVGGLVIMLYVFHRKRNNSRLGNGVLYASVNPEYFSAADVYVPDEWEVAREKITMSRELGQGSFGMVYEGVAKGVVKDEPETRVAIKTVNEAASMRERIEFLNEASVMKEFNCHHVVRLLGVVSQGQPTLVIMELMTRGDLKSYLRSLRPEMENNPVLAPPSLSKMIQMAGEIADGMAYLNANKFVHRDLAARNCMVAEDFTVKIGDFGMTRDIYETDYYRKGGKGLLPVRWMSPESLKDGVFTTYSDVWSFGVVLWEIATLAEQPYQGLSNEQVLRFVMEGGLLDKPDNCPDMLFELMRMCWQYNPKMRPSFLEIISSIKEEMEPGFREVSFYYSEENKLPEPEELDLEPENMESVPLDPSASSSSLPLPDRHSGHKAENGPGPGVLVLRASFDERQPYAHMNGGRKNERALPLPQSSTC

For the compound `CCOc1ccc(-c2nc3ccccn3c2-c2ccnc(Nc3cc(C)c(N4CCC(CCS(C)(=O)=O)CC4)cc3OC)n2)cc1C(=O)Nc1c(F)cccc1F` [Example 229, N-(2,6-difluorophenyl)-2-(ethyloxy)-5-(3-{2-[(5-methyl-2-(methyloxy)-4-{4-[2-(methylsulfonyl)ethyl]-1-piperidinyl}phenyl)amino]-4-pyrimidinyl}imidazo[1,2-a]pyridin-2-yl)benzamide], the IC50 with COLO205 (colon) was below 250 nM; in assay [1], below 250 nM; in assay [2], below 100 nM; in assay [3] it was below 100 nM.

Regarding `CCOc1cc(N2CCC(N3CCN(CC(F)F)CC3)CC2)ccc1Nc1nccc(-c2c(-c3cccc(C(=O)Nc4c(F)cccc4F)c3)nc3ccccn23)n1` [Example 117, 3-[3-(2-{[4-{4-[4-(2,2-difluoroethyl)-1-piperazinyl]-1-piperidinyl}-2-(ethyloxy)phenyl]-amino}-4-pyrimidinyl)imidazo[1,2-a]pyridin-2-yl]-N-(2,6-difluorophenyl)benzamide], the 50% inhibitory concentration (IC50) in the assay with COLO205 (colon) was above 1000 nM; in assay [1], 250 to 1000 nM; in assay [2], below 100 nM; in assay [3], below 100 nM.

Turning to `CCCN1CCC(c2ccc(Nc3nccc(-c4c(-c5ccc(OC)c(C(=O)Nc6c(F)cccc6F)c5)nc5ccccn45)n3)c(OCC)c2)CC1` [Example 154, N-(2,6-difluorophenyl)-5-[3-(2-{[2-(ethyloxy)-4-(1-propyl-4-piperidinyl)phenyl]amino}-4-pyrimidinyl)imidazo[1,2-a]pyridin-2-yl]-2-(methyloxy)benzamide], the half-inhibitory concentration (IC50) was 250 to 1000 nM in the assay on COLO205 (colon), below 250 nM in assay [1], below 100 nM in assay [2] and below 100 nM in assay [3].

With `COc1cc(N2CCC(N3CCN(CCF)CC3)CC2)ccc1Nc1nccc(-c2c(-c3ccc(OC)c(C(=O)Nc4c(F)cccc4F)c3)nc3cc(F)ccn23)n1` [Example 197, N-(2,6-difluorophenyl)-5-[7-fluoro-3-(2-{[4-{4-[4-(2-fluoroethyl)-1-piperazinyl]-1-piperidinyl]-2-(methyloxy)phenyl]amino}-4-pyrimidinyl)imidazo[1,2-a]pyridin-2-yl]-2-(methyloxy)benzamide], the IC50 in the assay on COLO205 (colon) was 250 to 1000 nM; in assay [1], below 250 nM; in assay [2], below 100 nM; in assay [3], below 100 nM.

Consider `COc1cc(N2CCC(N3CCCCC3)CC2)c(OC)cc1Nc1nccc(-c2c(-c3cccc(C(=O)Nc4c(F)cccc4F)c3)nc3ccccn23)n1` [Example 110, 3-[3-(2-{[4-(1,4′-bipiperidin-1′-yl)-2,5-bis(methyloxy)phenyl]amino}-4-pyrimidinyl)imidazo[1,2-a]pyridin-2-yl]-N-(2,6-difluorophenyl)benzamide], for which the IC50 in the assay on COLO205 (colon) was 250 to 1000 nM; in assay [1], below 250 nM; in assay [2], below 100 nM; in assay [3] it was below 100 nM.

With `CCOc1cc(N2CCC(N3CCN(S(C)(=O)=O)CC3)CC2)c(CC)cc1Nc1nccc(-c2c(-c3ccc(OC)c(C(=O)Nc4c(F)cccc4F)c3)nc3ccccn23)n1` [Example 204, N-(2,6-difluorophenyl)-5-(3-{2-[(5-ethyl-2-(ethyloxy)-4-{4-[4-(methylsulfonyl)-1-piperazinyl]-1-piperidinyl]phenyl)amino]-4-pyrimidinyl}imidazo[1,2-a]pyridin-2-yl)-2-(methyloxy)benzamide], the 50% inhibitory concentration (IC50) with COLO205 (colon) was below 250 nM; in assay [1], below 250 nM; in assay [2], below 100 nM; in assay [3], below 100 nM.

In the case of `CCOc1ccc(-c2nc3ccccn3c2-c2ccnc(Nc3cc(CC)c(N4CCN(CCS(C)(=O)=O)CC4)cc3OC)n2)cc1C(=O)Nc1c(F)cccc1F` [Example 235, N-(2,6-difluorophenyl)-5-(3-{2-[(5-ethyl-2-(methyloxy)-4-{4-[2-(methylsulfonyl)ethyl]-1-piperazinyl}phenyl)amino]-4-pyrimidinyl}imidazo[1,2-a]pyridin-2-yl)-2-(ethyloxy)benzamide], the IC50 with COLO205 (colon) is below 250 nM; in assay [1], below 250 nM; in assay [2] it was below 100 nM; in assay [3], below 100 nM.

With `COc1cc(N2CCC(N3CCN(S(C)(=O)=O)CC3)CC2)c(C)cc1Nc1nccc(-c2c(-c3cccc(C(=O)Nc4c(F)cccc4F)c3)nc3ccccn23)n1` [Example 245, N-(2,6-difluorophenyl)-3-(3-{2-[(5-methyl-2-(methyloxy)-4-{4-[4-(methylsulfonyl)-1-piperazinyl]-1-piperidinyl}phenyl)amino]-4-pyrimidinyl}imidazo[1,2-a]pyridin-2-yl)benzamide], the IC50 in the assay with COLO205 (colon) was 250 to 1000 nM; in assay [1] it was below 250 nM; in assay [2] it was below 100 nM; in assay [3], below 100 nM.

In the case of `CCOc1ccc(-c2nc3ccccn3c2-c2ccnc(Nc3ccc(N4CCN(C(C)C)CC4)cc3OC)n2)cc1C(=O)Nc1c(F)cccc1F` [Example 177, N-(2,6-difluorophenyl)-2-(ethyloxy)-5-[3-(2-{[4-[4-(1-methylethyl)-1-piperazinyl]-2-(methyloxy)phenyl]amino}-4-pyrimidinyl)imidazo[1,2-a]pyridin-2-yl]benzamide], the IC50 was 250 to 1000 nM in the assay with COLO205 (colon), below 250 nM in assay [1], below 100 nM in assay [2] and below 100 nM in assay [3].

Regarding `CCOc1cc(N2CCC(CCS(C)(=O)=O)CC2)c(CC)cc1Nc1nccc(-c2c(-c3ccc(OC)c(C(=O)Nc4c(F)cccc4F)c3)nc3ccccn23)n1` [Example 210, N-(2,6-difluorophenyl)-5-[3-{2-[(5-ethyl-2-(ethyloxy)-4-{4-[2-(methylsulfonyl)ethyl]-1-piperidinyl}phenyl)amino]-4-pyrimidinyl}imidazo[1,2-a]pyridin-2-yl)-2-(methyloxy)benzamide], the IC50 with COLO205 (colon) is below 250 nM; in assay [1], below 250 nM; in assay [2], below 100 nM; in assay [3] it was below 100 nM.

`COc1ccc(-c2nc3ccccn3c2-c2ccnc(Nc3ccc(N4CCC(N5CCCCC5)CC4)c(C)c3OC)n2)cc1C(=O)Nc1c(F)cccc1F` [Example 55, 5-[3-(2-{[4-(1,4′-bipiperidin-1′-yl)-3-methyl-2-(methyloxy)phenyl]amino}-4-pyrimidinyl)imidazo[1,2-a]pyridin-2-yl]-N-(2,6-difluorophenyl)-2-(methyloxy)benzamide]: the 50% inhibitory concentration (IC50) in the assay with COLO205 (colon) is above 1000 nM; in assay [1], above 1000 nM; in assay [2], 100 to 500 nM; in assay [3] it was above 500 nM.

Consider `CN(C)CCOc1cccc(Nc2nccc(-c3c(-c4cccc(C(=O)Nc5c(F)cc(F)cc5F)c4)nc4ccccn34)n2)c1` [Example 12, 3-(3-{2-[(3-{[2-(dimethylamino)ethyl]oxy}phenyl)amino]-4-pyrimidinyl}imidazo[1,2-a]pyridin-2-yl)-N-(2,4,6-trifluorophenyl)benzamide], for which the IC50 in the assay on COLO205 (colon) was 250 to 1000 nM; in assay [1] it was below 250 nM; in assay [2], 100 to 500 nM.

As for `COc1cc(C2CCN(CCS(C)(=O)=O)CC2)ccc1Nc1nccc(-c2c(-c3ccc(OC)c(C(=O)Nc4c(F)cccc4F)c3)nc3ccccn23)n1` [Example 181, N-(2,6-difluorophenyl)-2-(methyloxy)-5-(3-{2-[(2-(methyloxy)-4-{1-[2-(methylsulfonyl)ethyl]-4-piperidinyl}phenyl)amino]-4-pyrimidinyl}imidazo[1,2-a]pyridin-2-yl)benzamide], the IC50 is 250 to 1000 nM with COLO205 (colon) and below 250 nM in assay [1].

Regarding `CCOc1cc(N2CCN(CCS(C)(=O)=O)CC2)c(C)cc1Nc1nccc(-c2c(-c3ccc(OC)c(C(=O)Nc4c(F)cccc4F)c3)nc3ccccn23)n1` [Example 247, N-(2,6-difluorophenyl)-5-(3-{2-[(2-(ethyloxy)-5-methyl-4-[4-[2-(methylsulfonyl)ethyl]-1-piperazinyl}phenyl)amino]-4-pyrimidinyl}imidazo[1,2-a]pyridin-2-yl)-2-(methyloxy)benzamide], the IC50 (in the assay on COLO205 (colon); in assay [1]) was below 250 nM throughout.

Regarding `COc1cc(N2CCC(CCS(C)(=O)=O)CC2)c(C)cc1Nc1nccc(-c2c(-c3cccc(C(=O)Nc4c(F)cccc4F)c3)nc3ccccn23)n1` [Example 231, N-(2,6-difluorophenyl)-3-(3-{2-[(5-methyl-2-(methyloxy)-4-{4-[2-(methylsulfonyl)ethyl]-1-piperidinyl}phenyl)amino]-4-pyrimidinyl}imidazo[1,2-a]pyridin-2-yl)benzamide], the figures for the IC50 in assay [1], in assay [2] and in assay [3] were below 250 nM, below 100 nM and below 100 nM, respectively.

As to `COc1cc(N2CCC(CCS(C)(=O)=O)CC2)c(C)cc1Nc1nccc(-c2c(-c3ccc(OC)c(C(=O)Nc4c(F)cccc4F)c3)nc3cc(F)ccn23)n1` [Example 220, N-(2,6-difluorophenyl)-5-(7-fluoro-3-{2-[(5-methyl-2-(methyloxy)-4-{4-[2-(methylsulfonyl)ethyl]-1-piperidinyl}phenyl)amino]-4-pyrimidinyl}imidazo[1,2-a]pyridin-2-yl)-2-(methyloxy)benzamide], the half-maximal inhibitory concentration (IC50) with COLO205 (colon) is 250 to 1000 nM; in assay [1], below 250 nM.
